Structures can show the parent of a compound that is named as a salt. Where two headings read alike, the source gives them in different places.
Columns and labels:
recombinant human MetAP2 = target: T1, recombinant human MetAP2 (Homo sapiens, UniProt P50579); test: Inhibition of recombinant human MetAP2 activity (MAS peptide / amino acid oxidase / Amplex assay); assay type: biochemical
T1 construct: Flag; made in house
Experimental: Compounds are tested for their capacity to inhibit recombinant human MetAP2 activity using the following assay.
Flag tagged Human recombinant MetAP2 expressed and isolated for use as the enzyme source. 10 mM stock solutions of compounds were prepared in 100% DMSO and further diluted in 100% DMSO required concentration to 1 mM stocks. The stock compound solutions and DMSO vehicle controls were diluted to target final compound concentrations using assay buffer to a final concentration of 50 mM HEPES containing 100 mM NaCl, pH adjusted to 7.5. The MAS peptide was formulated to a 7.5 mM stock in distilled water and prior to use further diluted 1:4. […] 40 μl of enzyme was mixed with 100 μl of MnCl2 then further diluted in assay buffer to a final concentration of 16 μg/ml. To test for compound effect on MetAP2 enzyme activity, 5 μl of test compound, 10 μl of MAS substrate/amino acid oxidase mixture, 10 μl of MetAP2 was added to test wells in a 384 well black plate with blank wells containing no enzyme, replaced with 10 μl of assay buffer. All compounds were tested in duplicate on two occasions on the same day.
The plate was sealed with a TopSeal A cover and mixed briefly on an orbital mixer at 900 rpm. The plate was incubated for a further 25 minutes at 25° C. A 5× stock of Amplex buffer was prepared (0.25M sodium phosphate, pH 7.4) and stored at 4° C. When preparing for use the stock was diluted with distilled water. […] Horse radish peroxidase was diluted in […] of Amplex buffer, 100 μl of this was combined with 50 μl of Amplex Ultrared in […] of 1× Amplex buffer to generate sufficient detection reagent for a 384 well plate. 25 μl detection reagent was added to each well of the test plate, which was re-sealed and mixed briefly on an orbital shaker. The plate was transferred to an Envision Multi-label reader and RFU measured corresponding to excitation 531 nm and emission 595 nm. At the end of the MetAP2 incubation 25 μl Amplex/HRP mixture per well was added and the plate read plate on a plate reader.

[1] = tested on: Diet Induced Obese (DIO) C57BL/6 mice; test: 10 day DIO mouse model, weight loss vs. vehicle; assay type: in vivo; settings: 240 h, 0.3 mpk sc once a day for 10 days
Source text: The objective of this study design was to investigate the efficacy of disclosed compounds in a 10 day DIO mouse model. Effects on body weight, food intake, hematology and blood chemistry were the primary readouts of this study design. Male, Diet Induced Obese (DIO) C57BL/6 mice, 19-21 weeks of age (13-15 weeks on high fat diet) were ordered from a certified vendor and upon receipt were housed on irradiated corncob bedding in micro-isolator cages on a 12-hour light-dark cycle (0700-1900) at 68-74° F. and 30-70% humidity. Mice were fed Research Diets D12492 (60% Kcal fat, 20% Kcal carbohydrate and 20% protein) and provided water ad libitum. DIO mice were received and housed in the facility for approximately two weeks prior to the start of test article administration. On Day −4 or −3, mice were randomized into study groups based on body weight and body weights were continued to be recorded daily for the duration of the study. Daily food intake was assessed starting on Study Day −2 by weighing of the food with hopper together to avoid loss of food in transfer.
Compounds were formulated into a 100% DMSO stock (at 9 mg/mL) prior to the start, and further diluted into the target working concentration using the vehicle of 10% DMSO in water. Prior to test article administration, starting on Day −3 a dosing acclimation occured with all animals receiving a subcutaneous injection of vehicle (10% DMSO) only for 3 days. Starting on Day 1, test compounds or vehicle were administered based on individual body weight, subcutaneously, once a day for 10 days. All mice were sacrificed on Day 11, 24 hours following the final dosing on Day 10. After sacrifice, whole blood was collected and analyzed for hematology and blood chemistry parameters.
Compounds were tested for weight loss vs. vehicle at 0.3 and 1.0 mpk sc (mg per kg animal weight delivered subcutaneously), and the results are shown in Table 2 below.

[2] = Flag tagged human recombinant MetAP2, 25 minutes at 25° C., read-out: MetAP2 IC50

T1 sequence (P50579 whole entry): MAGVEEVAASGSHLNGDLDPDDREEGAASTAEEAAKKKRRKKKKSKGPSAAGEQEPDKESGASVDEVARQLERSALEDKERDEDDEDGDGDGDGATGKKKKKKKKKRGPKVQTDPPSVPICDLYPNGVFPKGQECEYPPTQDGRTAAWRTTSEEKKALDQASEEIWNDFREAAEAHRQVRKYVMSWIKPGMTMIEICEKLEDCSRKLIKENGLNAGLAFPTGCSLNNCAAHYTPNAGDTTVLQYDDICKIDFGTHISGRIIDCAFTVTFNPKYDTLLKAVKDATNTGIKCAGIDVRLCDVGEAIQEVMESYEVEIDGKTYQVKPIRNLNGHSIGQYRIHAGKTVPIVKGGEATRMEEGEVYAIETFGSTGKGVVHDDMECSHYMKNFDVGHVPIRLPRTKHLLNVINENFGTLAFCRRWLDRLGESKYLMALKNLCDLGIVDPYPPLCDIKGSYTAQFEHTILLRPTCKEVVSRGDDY

Row | IC50 (recombinant human MetAP2; [2]) [nM] | SMILES | IC50 (recombinant human MetAP2) [nM] | inhibition in vivo at 0.3 mg/kg [1] [%]
1 |  | CO[C@@H]1[C@H](OC(=O)NC2CC3(CCN(C)C3)C2)CC[C@]2(CO2)[C@H]1[C@@]1(C)O[C@@H]1CC=C(C)C (stereo partly drawn) [Example 11, (3R,4S,5S,6R)-5-methoxy-4-((2R,3R)-2-methyl-3-(3-methylbut-2-enyl)oxiran-2-yl)-1-oxaspiro[2.5]octan-6-yl 6-methyl-6-azaspiro[3.4]octan-2-ylcarbamate formate] | < 50 | 6
2 |  | COC(=O)N1C[C@@H]2CN(C(=O)O[C@@H]3CC[C@]4(CO4)[C@@H]([C@@]4(C)O[C@@H]4CC=C(C)C)[C@@H]3OC)C[C@@H]2C1 [Example 42, (3aR,6aS)-2-((3R,4S,5S,6R)-5-methoxy-4-((2R,3R)-2-methyl-3-(3-methylbut-2-enyl)oxiran-2-yl)-1-oxaspiro[2.5]octan-6-yl) 5-methyl tetrahydropyrrolo[3,4-c]pyrrole-2,5(1H,3H)-dicarboxylate] |  | 12.4
3 |  | CO[C@@H]1[C@H](OC(=O)N2CCC3(CC2)CNC(=O)C3)CC[C@]2(CO2)[C@H]1[C@@]1(C)O[C@@H]1CC=C(C)C [Example 29, (3R,4S,5S,6R)-5-methoxy-4-((2R,3R)-2-methyl-3-(3-methylbut-2-enyl)oxiran-2-yl)-1-oxaspiro[2.5]octan-6-yl 3-oxo-2,8-diazaspiro[4.5]decane-8-carboxylate] |  | -0.5
4 | 50 to 500 | CNC(=O)[C@H]1[C@@H]2CN(C(=O)O[C@@H]3CC[C@]4(CO4)[C@@H]([C@@]4(C)O[C@@H]4CC=C(C)C)[C@@H]3OC)C[C@@H]21 [Example 32, (1R,5S,6R)-(3R,4S,5S,6R)-5-methoxy-4-((2R,3R)-2-methyl-3-(3-methylbut-2-en-1-yl)oxiran-2-yl)-1-oxaspiro[2.5]octan-6-yl 6-(methylcarbamoyl)-3-azabicyclo[3.1.0]hexane-3-carboxylate] |  | 4
5 |  | CO[C@@H]1[C@H](OC(=O)N2CC3(C2)CS(=O)(=O)C3)CC[C@]2(CO2)[C@H]1[C@@]1(C)O[C@@H]1CC=C(C)C [Example 23, (3R,4S,5S,6R)-5-methoxy-4-((2R,3R)-2-methyl-3-(3-methylbut-2-enyl)oxiran-2-yl)-1-oxaspiro[2.5]octan-6-yl 2-thia-6-azaspiro[3.3]heptane 2,2-dioxide-6-carboxylate] | 50 to 500 | 2
6 |  | CO[C@@H]1[C@H](OC(=O)N2C[C@@H]3[C@@H](CN4CCOCC4)[C@@H]3C2)CC[C@]2(CO2)[C@H]1[C@@]1(C)O[C@@H]1CC=C(C)C [Example 40, (1R,5S,6S)-((3R,4S,5S,6R)-5-methoxy-4-((2R,3R)-2-methyl-3-(3-methylbut-2-enyl)oxiran-2-yl)-1-oxaspiro[2.5]octan-6-yl) 6-(morpholinomethyl)-3-azabicyclo[3.1.0]hexane-3-carboxylate] |  | 11.1
7 |  | CO[C@@H]1[C@H](OC(=O)N2CCC3(CCN(C)CC3)CC2)CC[C@]2(CO2)[C@H]1[C@@]1(C)O[C@@H]1CC=C(C)C [Example 28, (3R,4S,5S,6R)-5-methoxy-4-((2R,3R)-2-methyl-3-(3-methylbut-2-enyl)oxiran-2-yl)-1-oxaspiro[2.5]octan-6-yl 9-methyl-3,9-diazaspiro[5.5]undecane-3-carboxylate] |  | 8
8 | < 50 | CO[C@@H]1[C@H](OC(=O)N2CC3(CCN(C)CC3)C2)CC[C@]2(CO2)[C@H]1[C@@]1(C)O[C@@H]1CC=C(C)C [Example 8, (3R,4S,5S,6R)-5-methoxy-4-((2R,3R)-2-methyl-3-(3-methylbut-2-enyl)oxiran-2-yl)-1-oxaspiro[2.5]octan-6-yl 7-methyl-2,7-diazaspiro[3.5]nonane-2-carboxylate formate] |  | 6.2
9 |  | CO[C@@H]1[C@H](OC(=O)N2CCC3(CCNC(=O)C3)CC2)CC[C@]2(CO2)[C@H]1[C@@]1(C)O[C@@H]1CC=C(C)C [Example 30, (3R,4S,5S,6R)-5-methoxy-4-((2R,3R)-2-methyl-3-(3-methylbut-2-enyl)oxiran-2-yl)-1-oxaspiro[2.5]octan-6-yl 8-oxo-3,9-diazaspiro[5.5]undecane-3-carboxylate] |  | 1.1
10 |  | CO[C@@H]1[C@H](OC(=O)N2CCC3(CCN(CC(F)F)CC3)C2)CC[C@]2(CO2)[C@H]1[C@@]1(C)O[C@@H]1CC=C(C)C [Example 16, (3R,4S,5S,6R)-5-methoxy-4-((2R,3R)-2-methyl-3-(3-methylbut-2-enyl)oxiran-2-yl)-1-oxaspiro[2.5]octan-6-yl 8-(2,2-difluoroethyl)-2,8-diazaspiro[4.5]decane-2-carboxylate] |  | 23.4
11 |  | CO[C@@H]1[C@H](OC(=O)N2CC3CC3C2)CC[C@]2(CO2)[C@H]1[C@@]1(C)O[C@@H]1CC=C(C)C (stereo partly drawn) [Example 21, (3R,4S,5S,6R)-5-methoxy-4-((2R,3R)-2-methyl-3-(3-methylbut-2-enyl)oxiran-2-yl)-1-oxaspiro[2.5]octan-6-yl 3-azabicyclo[3.1.0]hexane-3-carboxylate] |  | 21.2
12 |  | CO[C@@H]1[C@H](OC(=O)N2CC3(CNC(=O)C3)C2)CC[C@]2(CO2)[C@H]1[C@@]1(C)O[C@@H]1CC=C(C)C [Example 25, (3R,4S,5S,6R)-5-methoxy-4-((2R,3R)-2-methyl-3-(3-methylbut-2-enyl)oxiran-2-yl)-1-oxaspiro[2.5]octan-6-yl 7-oxo-2,6-diazaspiro[3.4]octane-2-carboxylate] | < 50 | 2
13 |  | CO[C@@H]1[C@H](OC(=O)N2CCC3(CCN(C)C(=O)C3)CC2)CC[C@]2(CO2)[C@H]1[C@@]1(C)O[C@@H]1CC=C(C)C [Example 31, (3R,4S,5S,6R)-5-methoxy-4-((2R,3R)-2-methyl-3-(3-methylbut-2-enyl)oxiran-2-yl)-1-oxaspiro[2.5]octan-6-yl 9-methyl-8-oxo-3,9-diazaspiro[5.5]undecane-3-carboxylate] |  | 3.6
14 | < 50 | CO[C@@H]1[C@H](OC(=O)N2C[C@@H]3[C@H](C2)[C@H]3C(N)=O)CC[C@]2(CO2)[C@H]1[C@@]1(C)O[C@@H]1CC=C(C)C [Example 34, (1R,5S,6R)-(3R,4S,5S,6R)-5-methoxy-4-((2R,3R)-2-methyl-3-(3-methylbut-2-en-1-yl)oxiran-2-yl)-1-oxaspiro[2.5]octan-6-yl 6-carbamoyl-3-azabicyclo[3.1.0]hexane-3-carboxylate] |  | 3
15 |  | CO[C@@H]1[C@H](OC(=O)N2CCC3(CN(CC(F)F)C3)C2)CC[C@]2(CO2)[C@H]1[C@@]1(C)O[C@@H]1CC=C(C)C [Example 15, (3R,4S,5S,6R)-5-methoxy-4-((2R,3R)-2-methyl-3-(3-methylbut-2-enyl)oxiran-2-yl)-1-oxaspiro[2.5]octan-6-yl 2-(2,2-difluoroethyl)-2,6-diazaspiro[3.4]octane-6-carboxylate] |  | 22.5
16 |  | CO[C@@H]1[C@H](OC(=O)N2C[C@@H]3[C@H](C2)[C@H]3C(=O)NCCN2CCOCC2)CC[C@]2(CO2)[C@H]1[C@@]1(C)O[C@@H]1CC=C(C)C [Example 37, (1R,5S,6R)-(3R,4S,5S,6R)-5-methoxy-4-((2R,3R)-2-methyl-3-(3-methylbut-2-en-1-yl)oxiran-2-yl)-1-oxaspiro[2.5]octan-6-yl 6-((2-morpholinoethyl)carbamoyl)-3-azabicyclo[3.1.0]hexane-3-carboxylate] |  | 4.3

Source: US9944613B2, “Fumagillol spirocyclic compounds and fused bicyclic compounds and methods of making and using same” (Zafgen, Inc., priority 2015, dated 2018)
